Test results from PubChem BioAssay (NCI).
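Each compound was tested at five concentrations against cells in 96-well plates for 48 hours. TGI denotes the concentration required for complete inhibition of growth.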

Tests used:
Assay in all cases: growth of human tumour cells (NCI), 48 h
HCT-116 colon = test system: HCT-116 colon
HT29 colon = test system: HT29 colon
HCT-15 colon = test system: HCT-15 colon
SK-MEL-5 melanoma = test system: SK-MEL-5 melanoma
UO-31 renal = test system: UO-31 renal
SK-MEL-28 melanoma = test system: SK-MEL-28 melanoma
NCI-H522 lung = test system: NCI-H522 lung
BT-549 breast = test system: BT-549 breast
MALME-3M melanoma = test system: MALME-3M melanoma
LOX IMVI melanoma = test system: LOX IMVI melanoma

Compound | TGI (HCT-116 colon) [µM] | TGI (HT29 colon) [µM] | TGI (HCT-15 colon) [µM] | TGI (SK-MEL-5 melanoma) [µM] | TGI (UO-31 renal) [µM] | TGI (SK-MEL-28 melanoma) [µM] | TGI (NCI-H522 lung) [µM] | TGI (BT-549 breast) [µM] | TGI (MALME-3M melanoma) [µM] | TGI (LOX IMVI melanoma) [µM]
CC1=C2NCN(C)N=C2C(C#N)(C#N)C1(C#N)C#N | 57.4 | 51.3 | 40.5 | > 71.4 | 36.7 | 49.9 | 28.5 | 44.5 | 44.2 | > 54.4
O=P(O)(O)CN1CCNCCN(CP(=O)(O)O)CCNCC1 | > 100 | > 100 | > 100 | > 42 | > 100 | > 100 | > 100 | > 100 | > 100 | > 100
CC1(C)CCC2(C(=O)OC3OC(CO)C(O)C(O)C3O)CCC3(CO)C(=CCC4C5(C)CC(O)C(O)C(C)(C(=O)OC6OC(CO)C(O)C(O)C6O)C5CCC43C)C2C1 (stereo not drawn) | > 100 | > 100 | > 100 | > 100 | > 100 | > 100 | > 100 | > 100 | > 100 | > 100
CC(C)(C)c1ccc(-c2nnc(-c3cc(C#N)cc(-c4nnc(-c5ccc(C(C)(C)C)cc5)o4)c3)o2)cc1 | > 100 | > 100 | > 100 | > 100 | > 100 | > 100 | > 100 | > 100 | > 100 | > 100
O=[N+]([O-])/C=C/c1cn(CCCCCn2cc(/C=C/[N+](=O)[O-])c3ccccc32)c2ccccc12 | 0.824 | 7.82 | 8.67 | 3.46 | 9.78 | 12.2 | 50.4 | 6.72 | 5.95 | 1.51
CCN(CC)CCN(C)CCc1ccc(Br)cc1 | > 100 | > 100 | > 100 | 33.6 | > 100 | > 100 | > 100 | > 100 | > 100 | > 100
Cc1ccc(S(=O)(=O)N/N=C2\C3CC4CC(C3)C2C4)cc1 (stereo not drawn) | – | > 100 | > 100 | > 100 | > 100 | > 100 | > 100 | > 100 | > 100 | > 100
COC(=O)c1ccc(/C=C2\CCc3ccccc3C2=O)cc1 | > 100 | > 100 | > 100 | > 100 | > 100 | > 100 | > 100 | > 100 | > 100 | > 100
O=[N+]([O-])c1ccc(NS(=O)(=O)C(F)(F)F)cc1 | > 100 | > 100 | > 100 | > 100 | > 100 | > 100 | > 100 | > 100 | – | > 100
O=C(/C=C/c1ccco1)c1cccc(C(=O)/C=C/c2ccco2)n1 | 18.5 | 37.4 | 28.1 | > 100 | 24.9 | 67.7 | 19.6 | 78.4 | > 100 | 5.37
